Values quoted from earlier work in patent US20220079880A1, “SOLID MICELLAR COMPOSITIONS OF CANNABINOID ACIDS” (priority 2019, published 2022).
Where two headings read alike, the source gives them in different places.

Experiments:
MBS model of epilepsy [1] = conditions: rats
seizures = conditions: response = reduced seizure frequency of greater than 50%; surveys
[2] = nano-size lipid-based systems
COX-2 = biological target: T1, COX-2 (Homo sapiens, UniProt P35354)
T1 sequence (P35354 18-604): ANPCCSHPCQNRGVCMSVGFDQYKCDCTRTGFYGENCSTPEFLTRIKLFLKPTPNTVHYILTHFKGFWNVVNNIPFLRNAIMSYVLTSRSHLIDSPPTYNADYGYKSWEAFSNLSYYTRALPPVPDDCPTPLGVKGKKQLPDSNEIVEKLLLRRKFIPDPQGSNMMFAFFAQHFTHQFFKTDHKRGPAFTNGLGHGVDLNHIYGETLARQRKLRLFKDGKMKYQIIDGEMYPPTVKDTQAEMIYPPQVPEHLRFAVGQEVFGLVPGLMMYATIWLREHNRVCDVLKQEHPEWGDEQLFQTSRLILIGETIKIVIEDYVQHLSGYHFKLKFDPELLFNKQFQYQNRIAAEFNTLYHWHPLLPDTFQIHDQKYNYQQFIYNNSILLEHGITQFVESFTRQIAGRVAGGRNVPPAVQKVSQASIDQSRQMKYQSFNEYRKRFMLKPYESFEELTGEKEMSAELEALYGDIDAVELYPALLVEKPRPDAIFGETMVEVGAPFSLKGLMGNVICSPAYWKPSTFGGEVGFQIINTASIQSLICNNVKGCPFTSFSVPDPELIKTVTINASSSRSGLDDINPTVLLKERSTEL

MBS model of epilepsy [3] = conditions: mice
PPARγ = biological target: T2, PPARγ (Homo sapiens, UniProt P37231)
T2 sequence (P37231 1-505): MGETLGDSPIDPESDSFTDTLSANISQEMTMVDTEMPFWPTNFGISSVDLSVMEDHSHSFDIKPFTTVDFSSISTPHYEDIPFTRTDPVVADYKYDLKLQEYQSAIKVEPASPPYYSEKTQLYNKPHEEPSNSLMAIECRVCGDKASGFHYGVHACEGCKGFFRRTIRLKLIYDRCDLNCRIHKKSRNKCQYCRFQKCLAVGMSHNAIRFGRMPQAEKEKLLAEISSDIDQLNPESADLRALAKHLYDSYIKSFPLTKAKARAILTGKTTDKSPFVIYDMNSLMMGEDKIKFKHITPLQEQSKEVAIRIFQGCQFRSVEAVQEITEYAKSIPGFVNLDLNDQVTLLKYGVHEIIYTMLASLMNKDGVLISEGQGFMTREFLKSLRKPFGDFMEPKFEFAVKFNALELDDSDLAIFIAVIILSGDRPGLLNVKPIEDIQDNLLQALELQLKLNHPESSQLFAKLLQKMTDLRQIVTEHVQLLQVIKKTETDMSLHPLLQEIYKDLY

prostate cancer cells = conditions: animal studies
TRPM8 = TRPM8 (Homo sapiens, UniProt Q7Z2W7)
Chain of TRPM8 (Q7Z2W7 whole entry, species assumed): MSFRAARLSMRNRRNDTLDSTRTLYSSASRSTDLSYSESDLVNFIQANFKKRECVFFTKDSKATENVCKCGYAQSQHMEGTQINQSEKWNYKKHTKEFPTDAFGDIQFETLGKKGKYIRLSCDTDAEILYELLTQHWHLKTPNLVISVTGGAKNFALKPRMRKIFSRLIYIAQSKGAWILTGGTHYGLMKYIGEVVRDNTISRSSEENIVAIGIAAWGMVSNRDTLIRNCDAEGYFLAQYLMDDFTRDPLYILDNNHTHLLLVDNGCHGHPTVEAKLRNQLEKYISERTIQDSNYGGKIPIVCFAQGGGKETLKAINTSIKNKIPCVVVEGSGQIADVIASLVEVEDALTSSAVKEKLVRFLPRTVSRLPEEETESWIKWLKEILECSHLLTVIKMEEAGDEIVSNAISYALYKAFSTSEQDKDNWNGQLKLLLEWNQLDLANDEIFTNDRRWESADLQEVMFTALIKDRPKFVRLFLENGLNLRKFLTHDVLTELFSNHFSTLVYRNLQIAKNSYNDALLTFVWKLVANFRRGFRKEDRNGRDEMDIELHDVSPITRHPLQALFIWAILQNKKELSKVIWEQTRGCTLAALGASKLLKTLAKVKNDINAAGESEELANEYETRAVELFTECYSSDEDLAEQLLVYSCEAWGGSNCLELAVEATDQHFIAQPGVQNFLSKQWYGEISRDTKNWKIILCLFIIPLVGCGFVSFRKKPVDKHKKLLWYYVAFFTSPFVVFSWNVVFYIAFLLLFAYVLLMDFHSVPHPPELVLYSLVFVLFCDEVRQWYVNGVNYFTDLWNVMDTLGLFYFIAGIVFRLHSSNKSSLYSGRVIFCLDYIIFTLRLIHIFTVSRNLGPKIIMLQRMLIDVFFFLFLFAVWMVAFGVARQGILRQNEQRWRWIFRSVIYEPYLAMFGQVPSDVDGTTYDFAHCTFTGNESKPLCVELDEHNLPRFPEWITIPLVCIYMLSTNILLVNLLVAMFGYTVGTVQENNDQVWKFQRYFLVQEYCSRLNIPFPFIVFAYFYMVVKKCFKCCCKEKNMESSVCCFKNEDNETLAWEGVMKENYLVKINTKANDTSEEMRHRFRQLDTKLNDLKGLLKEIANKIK

[4] = system: MDA-MB-231 human breast cancer cells
TRPV1′ = TRPV1′ (Homo sapiens, UniProt Q8NER1)
Chain of TRPV1′ (Q8NER1 whole entry, species assumed): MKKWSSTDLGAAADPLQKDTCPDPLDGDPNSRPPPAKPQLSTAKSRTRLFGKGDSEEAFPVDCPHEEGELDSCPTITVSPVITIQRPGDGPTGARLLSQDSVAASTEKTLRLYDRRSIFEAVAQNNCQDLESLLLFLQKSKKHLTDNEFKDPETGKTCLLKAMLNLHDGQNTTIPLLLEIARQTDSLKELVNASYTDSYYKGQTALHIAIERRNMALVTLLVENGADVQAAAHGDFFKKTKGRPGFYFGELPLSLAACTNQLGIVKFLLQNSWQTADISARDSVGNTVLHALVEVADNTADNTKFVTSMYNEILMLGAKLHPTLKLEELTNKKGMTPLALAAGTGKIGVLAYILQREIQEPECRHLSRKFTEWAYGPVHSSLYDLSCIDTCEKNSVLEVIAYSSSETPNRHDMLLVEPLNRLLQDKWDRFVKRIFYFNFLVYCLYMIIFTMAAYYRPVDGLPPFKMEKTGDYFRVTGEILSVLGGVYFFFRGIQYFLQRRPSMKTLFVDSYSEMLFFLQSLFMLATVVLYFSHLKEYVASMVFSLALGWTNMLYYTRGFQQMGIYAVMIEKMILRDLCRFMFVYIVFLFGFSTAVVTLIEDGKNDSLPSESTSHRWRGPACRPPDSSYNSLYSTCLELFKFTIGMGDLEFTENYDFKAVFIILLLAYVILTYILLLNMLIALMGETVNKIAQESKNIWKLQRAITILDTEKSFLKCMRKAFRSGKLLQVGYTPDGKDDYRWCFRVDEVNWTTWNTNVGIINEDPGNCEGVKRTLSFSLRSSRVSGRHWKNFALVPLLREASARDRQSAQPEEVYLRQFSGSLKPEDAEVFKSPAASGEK

TRPA1 = TRPA1 (Homo sapiens, UniProt O75762)
Chain of TRPA1 (O75762 whole entry, species assumed): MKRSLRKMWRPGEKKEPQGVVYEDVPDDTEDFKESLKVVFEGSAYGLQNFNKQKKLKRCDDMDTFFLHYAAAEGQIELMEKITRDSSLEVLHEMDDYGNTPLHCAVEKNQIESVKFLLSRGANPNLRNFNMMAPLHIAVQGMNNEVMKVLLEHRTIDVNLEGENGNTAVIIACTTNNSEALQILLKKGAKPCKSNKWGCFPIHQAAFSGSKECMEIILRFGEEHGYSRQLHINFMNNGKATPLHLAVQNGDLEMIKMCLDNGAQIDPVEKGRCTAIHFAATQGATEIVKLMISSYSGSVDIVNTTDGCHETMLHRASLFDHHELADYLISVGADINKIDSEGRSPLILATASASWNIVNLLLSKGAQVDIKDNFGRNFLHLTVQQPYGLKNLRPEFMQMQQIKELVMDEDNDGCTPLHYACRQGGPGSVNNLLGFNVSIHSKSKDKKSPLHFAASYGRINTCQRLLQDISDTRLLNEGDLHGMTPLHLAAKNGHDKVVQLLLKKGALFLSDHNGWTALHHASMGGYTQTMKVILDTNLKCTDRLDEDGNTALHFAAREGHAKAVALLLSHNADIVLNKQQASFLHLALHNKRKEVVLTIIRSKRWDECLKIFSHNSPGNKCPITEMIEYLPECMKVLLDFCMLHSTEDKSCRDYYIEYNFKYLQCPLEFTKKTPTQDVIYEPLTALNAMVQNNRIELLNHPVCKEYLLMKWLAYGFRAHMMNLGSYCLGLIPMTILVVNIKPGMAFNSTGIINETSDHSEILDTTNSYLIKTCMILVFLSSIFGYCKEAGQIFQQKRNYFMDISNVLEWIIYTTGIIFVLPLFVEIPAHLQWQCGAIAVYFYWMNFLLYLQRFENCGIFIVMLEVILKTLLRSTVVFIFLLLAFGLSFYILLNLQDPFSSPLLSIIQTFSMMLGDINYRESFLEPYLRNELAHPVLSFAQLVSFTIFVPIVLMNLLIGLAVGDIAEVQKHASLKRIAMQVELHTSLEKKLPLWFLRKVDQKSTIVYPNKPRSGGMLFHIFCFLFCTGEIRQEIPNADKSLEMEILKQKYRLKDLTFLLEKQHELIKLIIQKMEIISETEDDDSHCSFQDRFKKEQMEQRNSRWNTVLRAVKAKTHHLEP

COX-1 = COX-1 (Homo sapiens, UniProt P23219)
Chain of COX-1 (P23219 24-599): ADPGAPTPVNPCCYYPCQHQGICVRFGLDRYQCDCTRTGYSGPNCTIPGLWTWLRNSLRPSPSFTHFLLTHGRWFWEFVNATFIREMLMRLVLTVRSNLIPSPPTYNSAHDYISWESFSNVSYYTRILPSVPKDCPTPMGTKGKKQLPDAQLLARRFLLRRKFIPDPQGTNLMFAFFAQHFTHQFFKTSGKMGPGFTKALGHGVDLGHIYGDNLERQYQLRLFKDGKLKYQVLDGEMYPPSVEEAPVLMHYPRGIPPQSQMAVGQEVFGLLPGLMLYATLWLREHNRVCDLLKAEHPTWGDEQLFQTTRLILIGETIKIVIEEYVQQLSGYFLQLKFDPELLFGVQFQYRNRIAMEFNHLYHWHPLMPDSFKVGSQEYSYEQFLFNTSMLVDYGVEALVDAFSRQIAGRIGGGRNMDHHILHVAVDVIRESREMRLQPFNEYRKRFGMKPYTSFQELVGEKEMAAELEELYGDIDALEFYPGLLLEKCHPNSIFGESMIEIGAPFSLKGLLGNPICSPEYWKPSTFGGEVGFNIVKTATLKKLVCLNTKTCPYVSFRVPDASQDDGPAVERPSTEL

[5] = system: experimentally induced nausea; conditions: rats; 5HT1A receptor-mediated
[6] = receptor affinity and effect; purportedly
GPR-55 = GPR-55 (Homo sapiens, UniProt Q9Y2T6)
Chain of GPR-55 (Q9Y2T6 whole entry, species assumed): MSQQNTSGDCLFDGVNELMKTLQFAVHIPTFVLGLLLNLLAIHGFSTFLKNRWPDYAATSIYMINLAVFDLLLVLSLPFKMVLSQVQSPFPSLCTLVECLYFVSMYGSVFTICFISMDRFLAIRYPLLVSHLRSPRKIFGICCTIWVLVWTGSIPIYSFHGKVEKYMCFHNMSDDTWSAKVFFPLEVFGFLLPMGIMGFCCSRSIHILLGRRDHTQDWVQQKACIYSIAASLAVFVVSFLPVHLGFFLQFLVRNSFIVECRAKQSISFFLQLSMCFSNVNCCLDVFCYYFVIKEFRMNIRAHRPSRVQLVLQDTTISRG

5-HT1A receptors = biological target: T3, 5-HT1A receptors (Homo sapiens, UniProt P08908)
T3 sequence (P08908 1-422): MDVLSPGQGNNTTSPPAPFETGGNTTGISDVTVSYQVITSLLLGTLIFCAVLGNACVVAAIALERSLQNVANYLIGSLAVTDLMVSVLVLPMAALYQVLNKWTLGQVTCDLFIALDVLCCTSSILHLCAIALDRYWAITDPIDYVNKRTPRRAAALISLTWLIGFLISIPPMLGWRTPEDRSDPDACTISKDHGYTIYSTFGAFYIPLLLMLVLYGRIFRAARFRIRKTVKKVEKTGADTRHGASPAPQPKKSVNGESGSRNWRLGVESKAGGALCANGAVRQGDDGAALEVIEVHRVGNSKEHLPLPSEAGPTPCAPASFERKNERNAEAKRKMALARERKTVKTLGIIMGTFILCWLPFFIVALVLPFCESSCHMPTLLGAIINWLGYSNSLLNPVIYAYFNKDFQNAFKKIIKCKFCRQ

## C=C(C)[C@@H]1CCC(C)=C[C@H]1c1c(O)cc(CCCCC)cc1O [CBD, cannabidiol]
MBS model of epilepsy [1]
  ED50 for the MBS model of epilepsy: 89 mg/kg
seizures
  response rate: ~47%
[2]
  improvement in BA: 10 ×
COX-2; compared with CBDa
  COX-2 inhibition, in words: not nearly as active
MBS model of epilepsy [3]
  ED50 for the MBS model of epilepsy: 85 mg/kg

## CCCCCc1cc2c(c(O)c1C(=O)O)[C@@H]1C=C(C)CC[C@H]1C(C)(C)O2 [THCa, tetrahydrocannabinolic acid]
PPARγ
  PPARγ binding compared with the corresponding neutral cannabinoid: outperform
Prostate cancer cells
  effect on spread of prostate cancer cells: limit the spread

## C=C(C)[C@@H]1CCC(C)=C[C@H]1c1c(O)cc(CCCCC)c(C(=O)O)c1O [CBDa, cannabidiolic acid]
TRPM8
  activity at TRPM8: agonist
[4]
  effect on migration of MDA-MB-231 cells: inhibit migration
TRPV1′
  activity at TRPV1′: agonist
TRPA1
  activity at TRPA1: agonist
PPARγ
  PPARγ binding compared with the corresponding neutral cannabinoid: outperform
COX-1
  COX-1 inhibition, in words: does not inhibit
[5]
  effect on experimentally induced nausea: suppressed
COX-2
  concentration that inhibited COX-2: ~2 µM
[6]
  potency relative to CBD: 1000-4000 ×
GPR-55
  effect on GPR-55: inhibitory effects
5-HT1A receptors
  affinity for 5-HT1A receptors over CBD: 100 fold

## CCCCCc1cc(O)c(C/C=C(\C)CCC=C(C)C)c(O)c1C(=O)O [CBGa, cannabigerolic acid]
PPARγ
  PPARγ binding compared with the corresponding neutral cannabinoid: outperform
